Values of other authors in patent US20030082215A1 (priority 1999, published 2003).
Read-outs that look alike come from different tables or passages of the source.

bioavailability (conventional gelatin capsule form, after meals): 89%
bioavailability (conventional gelatin capsule form, on an empty stomach): 26%
bioavailability (gelatin capsule containing a 300 mg dose, healthy volunteers): ~30%
SMILES: CC(C)OC(=O)C(C)(C)Oc1ccc(C(=O)c2ccc(Cl)cc2)cc1 [fenofibrate]
